According to PMC9718795, “Caffeic acid N-[3,5-bis(trifluoromethyl)phenyl] amide as a non-steroidal inhibitor for steroid 5α-reductase type 1 using a human keratinocyte cell-based assay and molecular dynamics” (Scientific Reports, 2022):
Like-named read-outs stand apart in the source and are kept apart here.

Tests used:
[1] = tested on: human keratinocyte (HaCaT) cells; test: In vitro cytotoxic MTT assay against HaCaT cells; format: cell-based; settings: 0.5–50 µM, 24 h
Protocol: (§1) The cytotoxicity of caffeic acid and its amide derivatives were evaluated with two cell lines, human keratinocyte (HaCaT) and DP cells, using the common cell viability assay with MTT. HaCaT and DP cells were seeded at 1 × 10^4 cell/well in 96-well plates in a complete DMEM medium, incubated overnight, and treated with test compounds at 0–50 µM for 24 h. The stock solutions of all the test compounds were prepared in DMSO. Each compound was serially diluted in DMEM to achieve concentrations at 0.5–50 µM; DMEM was used as the negative control. After 24 h of treatment, the culture medium was removed, and cell viability was determined by adding 100 µL of 0.5 mg/mL MTT at 37 °C in darkness for 3 h. After removing the MTT solution, 100 µL of DMSO was added to each well to dissolve the purple formazan crystals. The absorbance was measured at 570 nm using a microplate reader, and the IC50 value was calculated. Each experiment was performed in triplicates.

[2] = tested on: dermal papilla (DP) cells; test: In vitro cytotoxic MTT assay against DP cells; format: cell-based, human; settings: 0.5–50 µM, 24 h
Protocol: as §1

[3] = Cell viability (MTT) run in parallel with the HaCaT-based SRD5A1 inhibitory assay; set-up: species or system human; settings: human
HaCaT cells = test: as above; set-up: species or system human; settings: human, 24 h, 20 µM
[4] = target: T1, steroid 5α-reductase type 1 (SRD5A1) (Homo sapiens, UniProt P18405); set-up: method as in PMID 28250347; settings: same HaCaT cell-based assay; read-out: IC50 of SRD5A1 inhibition; cited from earlier work
T1 construct: HaCaTs-produced SRD5A1 smoothly converted testosterone to DHT; endogenous in cells; host or cells: HaCaT human keratinocytes
T1 sequence (P18405 1-259): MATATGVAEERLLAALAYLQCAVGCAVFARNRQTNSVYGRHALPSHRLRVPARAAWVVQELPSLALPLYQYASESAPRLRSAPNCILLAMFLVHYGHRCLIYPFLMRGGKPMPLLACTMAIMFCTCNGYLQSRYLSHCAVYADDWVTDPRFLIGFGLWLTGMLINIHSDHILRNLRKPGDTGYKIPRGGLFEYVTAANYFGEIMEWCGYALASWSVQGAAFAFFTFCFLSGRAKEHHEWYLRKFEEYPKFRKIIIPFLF

[5] = target: T1, steroid 5α-reductase type 1 (SRD5A1); test: HaCaT cell-based SRD5A1 inhibitory assay with direct DHT detection by HPTLC; settings: HaCaT, read-out: % Inhibition of DHT production ± SD; for inhibition at 20 µM: compound 20 µM, 24 h
HaCaTs-produced SRD5A1 = target: T2, HaCaTs-produced SRD5A1 (Homo sapiens, UniProt P18405); test: Whole-cell-based kinetic study of HaCaT-produced SRD5A1 with HPTLC; settings: no inhibitor, 12 h
T2 construct: HaCaTs-produced SRD5A1 smoothly converted testosterone to DHT; endogenous in cells; host or cells: HaCaT human keratinocytes
T2 sequence (P18405 1-259): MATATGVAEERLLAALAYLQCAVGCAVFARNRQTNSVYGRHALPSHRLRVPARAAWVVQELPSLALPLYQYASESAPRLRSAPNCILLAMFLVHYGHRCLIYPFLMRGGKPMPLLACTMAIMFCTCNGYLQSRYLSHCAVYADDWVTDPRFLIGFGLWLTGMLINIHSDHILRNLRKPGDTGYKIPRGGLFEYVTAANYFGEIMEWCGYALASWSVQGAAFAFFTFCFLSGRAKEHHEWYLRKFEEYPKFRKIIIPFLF
Protocol: (§2) The in vitro whole HaCaT cell-based assay for the kinetic inhibition against SRD5A1 included culturing the cells for 48 h, treating the cells with testosterone and compound 4 for 12 h and evaluating the % intensity of DHT and cell viability using HPTLC analysis and MTT assay, respectively. The HaCaT cells were seeded and incubated as same as the method shown in 3.8. For the evaluation of dose-dependent activity of testosterone, the different concentration of testosterone (0 − 50 μM) and DMEM with 0.1% DMSO were added. […] DMEM with 0.1% DMSO was used as negative control. Then, the cells were incubated for 12 h. The collection of cell culture medium, extraction process, sample preparation and HPTLC detection were prepared by the method mentioned above (3.8). The obtaining chromatogram was visualized by CAMAG HPTLC Software vision CATS and analyzed by Image J software. The percentage of DHT intensity was calculated based on the intensity of DHT normalized by the standard of DHT at 100 μM. At the same time, the cell viability of the treated cells was assessed by the MTT assay. Each experiment was repeated in triplicate.

[6] = Cell viability (MTT) in the whole-cell kinetic study; format: cell-based; settings: human, HaCaT cells, testosterone 0−50 µM, read-out: Cell viabilities
Protocol: as §2

[7] = substrate: C[C@]12CC[C@H]3[C@@H](CCC4=CC(=O)CC[C@@]43C)[C@@H]1CC[C@@H]2O; test: Whole-cell-based kinetic study of HaCaT-produced SRD5A1 with HPTLC; set-up: species or system human; settings: other: no inhibitor, Michaelis–Menten, 12 h
Protocol: as §2

[8] = HaCaT cells, compound 20 µM, HaCaT, 24 h, read-out: % Cell viability ± SD

## O=C(O)C=Cc1ccc(O)c(O)c1 [Compound 1, 3,4-dihydroxycinnamic acid]
[1]
  Toxicity against HaCaT cells: no toxicity
[2]
  Toxicity against DP cells: no toxicity
[3]; % Cell viability ± SD
  viability at 24 h, 20 µM: 86%
HaCaT cells
  % Cell viability ± SD: 86.38 ± 5.70%

## CC(C)(O)c1cc2c(o1)C(=O)c1ccccc1C2=O [avicequinone C]
[4]
  IC50: 4.45 ± 0.42 µM

## C[C@]12CC[C@H]3[C@@H](CCC4=CC(=O)CC[C@@]43C)[C@@H]1CC[C@@H]2O [Testosterone, reference compound]
[5]
  inhibition at 10 µM: 0%
[3]; 10 µM testosterone, substrate only, read-out: % Cell viability ± SD
  viability at 24 h, 10 µM: 100%
HaCaTs-produced SRD5A1
  Vmax in the absence of inhibitors: 130.9
HaCaTs-produced SRD5A1; testosterone 1 µM
  % DHT intensity ± S.D.: 15.35 ± 9.10%
HaCaTs-produced SRD5A1; testosterone 5 µM
  % DHT intensity ± S.D.: 43.55 ± 10.80%
HaCaTs-produced SRD5A1; testosterone 10 µM
  % DHT intensity ± S.D.: 65.05 ± 13.06%
HaCaTs-produced SRD5A1; testosterone 25 µM
  % DHT intensity ± S.D.: 103.52 ± 20.66%
HaCaTs-produced SRD5A1; testosterone 50 µM
  % DHT intensity ± S.D.: 105.75 ± 11.30%
[6]
  viability at 12 h: ~80%

## C[C@]12C=CC(=O)N[C@@H]1CC[C@@H]1[C@@H]2CC[C@]2(C)[C@@H](C(=O)Nc3cc(C(F)(F)F)ccc3C(F)(F)F)CC[C@@H]12 [Dutasteride, reference compound]
[5]
  inhibition at 2.5 µM: 100%
[3]; HaCaT cells, 2.5 µM, positive control, HaCaT, 24 h, read-out: % Cell viability ± SD
  viability at 24 h, 2.5 µM: 88.14 ± 0.11%

## CC(C)(C)NC(=O)C=Cc1ccc(O)c(O)c1 [Compound 3, 3-(3,4-dihydroxyphenyl)-N-(1,1-dimethylethyl)-2-propenamide]
[5]
  inhibition at 20 µM: 2 ± 2.12%
[1]
  Toxicity against HaCaT cells: no toxicity
[2]
  Toxicity against DP cells: no toxicity
[3]; [8]
  viability at 24 h, 20 µM: 102 ± 2.09%

## O=C(C=Cc1ccc(O)c(O)c1)Nc1ccccc1 [Compound 2, 3-(3,4-dihydroxyphenyl)-N-phenyl-2-propenamide]
[5]
  inhibition at 20 µM: 4.84 ± 2.12%
[1]
  Toxicity against HaCaT cells: no toxicity
[2]
  Toxicity against DP cells: no toxicity
[3]; [8]
  viability at 24 h, 20 µM: 102.9 ± 0.4%

B1: HaCaTs-produced SRD5A1 (Homo sapiens) (protein)
chain: MATATGVAEERLLAALAYLQCAVGCAVFARNRQTNSVYGRHALPSHRLRVPARAAWVVQELPSLALPLYQYASESAPRLRSAPNCILLAMFLVHYGHRCLIYPFLMRGGKPMPLLACTMAIMFCTCNGYLQSRYLSHCAVYADDWVTDPRFLIGFGLWLTGMLINIHSDHILRNLRKPGDTGYKIPRGGLFEYVTAANYFGEIMEWCGYALASWSVQGAAFAFFTFCFLSGRAKEHHEWYLRKFEEYPKFRKIIIPFLF
notes: HaCaTs-produced SRD5A1 smoothly converted testosterone to DHT; endogenous in cells; host or cells: HaCaT human keratinocytes
[7]
  Km: 9.287 µM
